The text below walks through data of ChEMBL document CHEMBL1201862, “PubChem BioAssay data set” (2004).

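Following 48 hours of exposure in 96-well plates, responses at five concentrations were used to interpolate endpoints linearly. GI50: concentration for 50% inhibition of growth.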 The source made the active and inactive calls. Cut-off read from the data, not from the text of the source: active = GI50 up to about 1.1 µM and inactive = higher.

Holding throughout (assay): inhibition of tumour cell growth, NCI panel, 48 h
Experiment [1] has as its system RXF 631.
Experiment [2] relates to DMS-273.
In experiment [3] the test system is KM-20L2.
The test system of experiment [4] is M19-MEL.
Experiment [5] concerns SNB-78.
Experiment [6] relates to LXFL 529.
Experiment [7] deals with XF498.
Experiment [8] concerns HOP-18.
In experiment [9] the test system is DMS-114.

On to `N#Cc1c(-c2ccco2)cc(-c2ccccc2)nc1O`, for which the GI50 in [1], in experiment [2], in [3], in [4], in experiment [5] and in experiment [6] was > 100 µM (inactive) each time.
Regarding `CC1CCP(=O)(c2ccccc2)c2ccccc21` (stereo unspecified), the GI50 is 28.2 µM (inactive) in experiment [2]; > 100 µM (inactive) in experiment [3]; < 0.01 µM (active) in experiment [7]; > 100 µM (inactive) in [8]; 24.4 µM (inactive) in experiment [4]; > 100 µM (inactive) in [5]. For the same compound, the GI50 was 38.4 µM (inactive) in experiment [9] and 43.6 µM (inactive) in experiment [6].
As to `COC(=O)C1=C(C(=O)OC)SC(=CC#CC=C2SC(C(=O)OC)=C(C(=O)OC)S2)S1`, the GI50 in experiment [2] is 10.5 µM (inactive); in experiment [3] it was 11.9 µM (inactive); in [7] it was 4.53 µM (inactive); in experiment [8] it was 8.87 µM (inactive); in [4] it was 40.5 µM (inactive); in experiment [5], 12.2 µM (inactive). Also, the GI50 in experiment [9] is 35.2 µM (inactive); in experiment [6], 14.3 µM (inactive).
Turning to `CNC(=O)CN(CC(=O)NC)C(=O)NC`, the GI50 in [2], in [3], in experiment [7], in experiment [4], in [5] and in experiment [6] was > 100 µM (inactive) each time.
For the compound `Cc1cc2c(cc1Br)C1(C)CCC(C)C1(C)O2` (stereo unspecified), the GI50 in [2] was 19.6 µM (inactive); in experiment [3], 32.3 µM (inactive); in [7], 22.5 µM (inactive); in experiment [8] it was 30.1 µM (inactive); in experiment [4] it was 25.3 µM (inactive); in experiment [5] it was 24 µM (inactive). Also, the GI50 in experiment [9] is 22 µM (inactive); in experiment [6], 57.7 µM (inactive).
As to `O=C1c2ccoc2C(=O)c2oc(=O)ccc21`, the GI50 in experiment [2] is 16.8 µM (inactive); in experiment [3], > 46.1 µM (inactive); in [7] it was 25.3 µM (inactive); in experiment [8], 21.6 µM (inactive); in experiment [4], 1.56 µM (inactive); in experiment [5], 12.2 µM (inactive). For the same compound, the values for the GI50 in experiment [9] and in experiment [6] were 2.05 µM (inactive) and 6.75 µM (inactive), respectively.
As for `N/N=C1\C(=O)N(CCc2ccccc2)C(=O)C1C(=O)NCCc1ccccc1` (stereo unspecified), the GI50 in [1], in experiment [2], in experiment [3], in [7], in [4] and in [5] was > 100 µM (inactive) throughout. For the same compound, the GI50 in experiment [6] is > 100 µM (inactive).
For the compound `N#CC1(C#N)C2(c3ccccc3)OC(c3ccccc3)(c3cc4ccccc4cc32)C1(C#N)C#N`, the GI50 in experiment [2] is 16.3 µM (inactive); in experiment [3], 13.3 µM (inactive); in experiment [8], 3.47 µM (inactive); in experiment [9] it was 7.89 µM (inactive); in experiment [6], 1.62 µM (inactive).
On to `CC(C)OP(=O)(NC(=S)c1ccccc1)OC(C)C`, for which the GI50 in experiment [2] is > 100 µM (inactive); in experiment [3], > 100 µM (inactive); in [7], > 100 µM (inactive); in experiment [4] it was > 100 µM (inactive); in experiment [5] it was > 100 µM (inactive); in [9] it was 70.8 µM (inactive). Also, the GI50 in experiment [6] is 57.7 µM (inactive).
Turning to `CN1C(=O)n2c(nc3ccccc32)C(N=[N+]=[N-])(N=[N+]=[N-])C1=O` (stereo unspecified), the GI50 in experiment [1], in experiment [2], in experiment [3], in experiment [7], in experiment [8] and in experiment [4] was > 100 µM (inactive) in each case. The GI50 in experiment [5], in experiment [9] and in [6] was > 100 µM (inactive) in each case.
In the case of `COc1cc2c(cc1OC)C(Cl)C(c1ccc(Br)cc1)=C2Cl` (stereo unspecified), the GI50 in experiment [2] is 14.3 µM (inactive); in experiment [3], 18.5 µM (inactive); in experiment [8], 20.9 µM (inactive); in [4], 16.4 µM (inactive); in [5], 13.5 µM (inactive); in [9] it was 9.06 µM (inactive).
For `CC(C)C(=O)NS(=O)(=O)c1ccccc1`, the GI50 in [1], in [3], in experiment [7], in [8], in experiment [4] and in experiment [5] was > 100 µM (inactive) each time. Moreover, the GI50 in [9] and in experiment [6] was > 100 µM (inactive) throughout.
With `N#C/N=C(/NCCc1c[nH]c2ccccc12)Oc1ccccc1`, the GI50 is > 100 µM (inactive) in experiment [2]; 22.5 µM (inactive) in experiment [3]; 21.1 µM (inactive) in experiment [7]; 94.8 µM (inactive) in [4]; 98.9 µM (inactive) in [5]; 40.9 µM (inactive) in [9]. The GI50 in experiment [6] was 72.8 µM (inactive).
Turning to `COC(=O)c1cc(O)ccc1NC(=O)c1ccc(O)cc1`, the GI50 in experiment [1], in experiment [3], in [7], in experiment [8], in experiment [4] and in experiment [5] was > 100 µM (inactive) in each case. Further, the GI50 in experiment [9] and in experiment [6] was > 100 µM (inactive) each time.
For the compound `CCC(=O)C1=C(OC(C)=O)C2Cc3c(n(C)c4ccccc34)C(C1)N2C` (stereo unspecified), the GI50 is 22.9 µM (inactive) in experiment [1]; 20 µM (inactive) in experiment [2]; 35.9 µM (inactive) in experiment [3]; 25.4 µM (inactive) in [8]; 41.4 µM (inactive) in experiment [4]; 22.3 µM (inactive) in [5]. Moreover, the GI50 was 26.7 µM (inactive) in experiment [9] and 29 µM (inactive) in [6].
Consider `COc1c2nc(CCl)[nH]c(=O)c2c(OC)c2nc(CCl)[nH]c(=O)c12`, for which the GI50 in experiment [2], in experiment [3], in [7], in experiment [8], in [4] and in [5] was > 100 µM (inactive) each time. For the same compound, the GI50 in experiment [9] and in [6] was > 100 µM (inactive) each time.
`COC(=O)N1CCc2c(nc(N(C)CCO)[nH]c2=O)C1`: the GI50 in experiment [2], in [3], in experiment [7], in [8], in [4] and in experiment [5] was > 100 µM (inactive) throughout. Moreover, the GI50 in [9] and in [6] was > 100 µM (inactive) each time.
`CCOC1c2nc3ccccc3nc2-c2ccccc2N1C(C)=O` (stereo unspecified): the GI50 in [1] was 74.5 µM (inactive); in experiment [2] it was 93.3 µM (inactive); in experiment [3] it was > 100 µM (inactive); in [7], > 100 µM (inactive); in experiment [8] it was 51.6 µM (inactive); in experiment [4], > 100 µM (inactive). For the same compound, the GI50 in experiment [5] was > 100 µM (inactive); in [9], > 100 µM (inactive); in experiment [6], 70.6 µM (inactive).
For the compound `CC(C)c1cccc(C(C)C)c1NC(=S)NN=C1C=C(C(C)(C)C)C(=O)C(C(C)(C)C)=C1`, the GI50 in [1] is 9.95 µM (inactive); in experiment [2], 29.9 µM (inactive); in [3], 24.2 µM (inactive); in experiment [7], 22.8 µM (inactive); in experiment [9], 7.26 µM (inactive); in experiment [6], 32.3 µM (inactive).
As for `COc1cc2c(cc1OC)-c1cc3cc(OC)c(OC)cc3n1CC2`, the GI50 in [3] is 21.6 µM (inactive); in [7], 18.9 µM (inactive); in [4], > 100 µM (inactive); in experiment [5], 36.8 µM (inactive); in experiment [9] it was 72.3 µM (inactive); in experiment [6], 54.8 µM (inactive).
